Measurements: patent US20230116703A1, “NOVEL ERGOLINES AND METHODS OF TREATING MOOD DISORDERS” (priority 2021, published 2023)

Key:
5-HT2A receptor [1] = target: T1, 5-HT2A receptor (Homo sapiens, UniProt P28223); assay: biochemical; type: binding; conditions: 1 nM [^3H]ketanserin, HEK293 stable cell line; read-out: 5-HT2A Receptor Ki (nM) ([^3H]ketanserin)
T1 construct: host or cells: HEK293
Outline: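 Values reflect [^3H]ketanserin binding competition. Assay conditions were adapted from the literature.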

5-HT1B receptor = 5-HT1B receptor (Homo sapiens, UniProt P28222); assay: cAMP accumulation agonist assay at 5-HT1B; type: cell-based; conditions: cAMP, agonist; read-out: 5-HT1B EC50
Outline: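 Agonism was measured by cAMP accumulation in stably transfected cells incubated 60 min at RT. A detection reagent was then added for 60 min at RT before reading, with an 800 nM cAMP standard in blank wells.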

5-HT2A receptor [2] = target: T1, 5-HT2A receptor; assay: cell-based; type: cell-based; conditions: Ca^2+ flux, agonist; read-out: 5-HT2A EC50
5-HT2B receptor = target: T2, 5-HT2B receptor (Homo sapiens, UniProt P41595); assay: cell-based; conditions: Ca^2+ flux, agonist; read-out: 5-HT2B EC50
T2 construct: host or cells: HEK293

5-HT1A receptor = target: T3, 5-HT1A receptor (Homo sapiens, UniProt P08908); assay: cell-based; conditions: Ca^2+ flux, agonist; read-out: 5-HT1A EC50
T3 construct: host or cells: CHO cells
T3 sequence (P08908 1-422): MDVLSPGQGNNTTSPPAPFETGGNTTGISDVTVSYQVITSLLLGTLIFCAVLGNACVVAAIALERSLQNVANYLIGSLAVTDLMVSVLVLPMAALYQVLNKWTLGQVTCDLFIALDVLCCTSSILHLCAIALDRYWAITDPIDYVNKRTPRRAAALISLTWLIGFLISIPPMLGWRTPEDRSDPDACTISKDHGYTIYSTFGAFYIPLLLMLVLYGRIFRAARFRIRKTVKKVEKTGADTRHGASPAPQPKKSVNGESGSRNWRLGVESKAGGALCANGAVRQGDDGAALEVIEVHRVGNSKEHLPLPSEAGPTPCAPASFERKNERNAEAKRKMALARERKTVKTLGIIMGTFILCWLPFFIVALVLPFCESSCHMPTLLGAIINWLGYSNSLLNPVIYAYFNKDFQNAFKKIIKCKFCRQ

[3] = Metabolic stability in mouse liver microsomes (MLM); type: in vitro ADME; conditions: 0.50 mg protein per mL; for t1/2: MLM (CD-1), 1 μM; for microsomal CLint at 1 μM: mouse, pooled mouse liver microsomes, pH 7.4, MLM (CD-1)
Source text: MLM Stability Pooled MLM from CD-1 mice (BIOIVT M00501) were used.

[4] = Metabolic stability in human liver microsomes (HLM); type: in vitro ADME; conditions: for t1/2: 1 μM, 0.50 mg protein per mL; for microsomal CLint at 1 μM: both sexes, human, pooled human liver microsomes, pH 7.4, 0.50 mg protein per mL
Source text: HLM Stability. Pooled HLM from adult male and female donors (Corning 452117) were used.

Alpha1A receptor = target: T4, Alpha1A receptor (Homo sapiens, UniProt P35348); assay: FLIPR Ca^2+ flux agonist assay at Alpha1A; type: cell-based
T4 sequence (P35348 1-466): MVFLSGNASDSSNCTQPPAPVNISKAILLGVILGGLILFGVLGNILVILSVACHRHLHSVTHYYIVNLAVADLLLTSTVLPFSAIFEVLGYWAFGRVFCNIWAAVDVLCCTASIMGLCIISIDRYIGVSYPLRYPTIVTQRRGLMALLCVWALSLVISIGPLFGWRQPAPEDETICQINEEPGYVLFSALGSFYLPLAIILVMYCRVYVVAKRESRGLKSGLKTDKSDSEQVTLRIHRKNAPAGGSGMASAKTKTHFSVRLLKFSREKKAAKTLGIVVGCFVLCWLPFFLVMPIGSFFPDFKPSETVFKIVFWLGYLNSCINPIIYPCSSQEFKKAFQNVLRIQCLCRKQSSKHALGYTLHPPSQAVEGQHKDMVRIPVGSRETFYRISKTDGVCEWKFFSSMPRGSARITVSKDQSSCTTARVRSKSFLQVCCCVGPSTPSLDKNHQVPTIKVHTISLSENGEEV
Method: Disclosed compounds were tested for agonist activity at several adrenergic (Alpha1A and Alpha2A) and dopamine (D1 and D2) receptor subtypes using Ca^2+ flux functional assays, with the results summarized in Table 6. Selectivity for the 5-HT2A receptor over these other targets varied depending on the specific target and compound.
(§1) Functional Assays at Adrenergic and Dopamine Receptors. Agonist activity at Alpha1A, Alpha2A, D1, and D2 receptors was determined using a FLIPR Ca^2+ flux assay at WuXi AppTec (Hong Kong) Limited according to their standard protocols. Briefly, stably transfected cells expressing the receptor of interest were grown and plated in a 384 well plate and incubated at 37° C. and 5% CO2 overnight. A solution of 250 mM probenecid in 1 mL FLIPR assay buffer was prepared fresh. This was combined with a fluorescent dye (Fluo-4 Direct™) to make a final assay concentration of 2.5 mM. Compounds were diluted 1:3.16 for 10 points and 750 nL was added to a 384 well compound plate using ECHO along with 30 μL assay buffer. The fluorescent dye was then added to the assay plate along with assay buffer to a final volume of 40 μL. The cell plate was incubated for 50 min at 37° C. and 5% CO2 and placed into the FLIPR Tetra along with the compound plate. 10 μL of references and compounds were then transferred from the compound plate into the cell plate and the fluorescent signal was read.

[5] = Metabolic stability in rat liver microsomes (RLM); conditions: for t1/2: RLM, 0.50 mg protein per mL; for microsomal CLint at 1 μM: both, rat, pooled rat liver microsomes, pH 7.4
D2 receptor = D2 receptor (Homo sapiens, UniProt P14416); assay: FLIPR Ca^2+ flux agonist assay at D2; type: cell-based
Method: as §1, with “Compounds were diluted 1:3.16 for 10 points and 750 nL was added to a 384 well compound plate using ECHO along with 30 μL assay buffer.” left out

5-HT2A receptor [6] = target: T1, 5-HT2A receptor; assay: PathHunter beta-arrestin recruitment assay at 5-HT2A; type: cell-based; conditions: 5-HT2A beta-arrestin
Outline: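 Cells co-express PK-tagged 5-HT2A and beta-arrestin fused to a beta-galactosidase deletion mutant, so arrestin recruitment restores enzyme activity, read by chemiluminescence; cells were held at 37° C before testing. Agonist % activity = RLU over vehicle, relative to the maximal control ligand.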

D1 receptor = D1 receptor (Homo sapiens, UniProt P21728); assay: FLIPR Ca^2+ flux agonist assay at D1; type: cell-based
Method: as §1, with “Compounds were diluted 1:3.16 for 10 points and 750 nL was added to a 384 well compound plate using ECHO along with 30 μL assay buffer.” left out

Sequence of 5-HT1B receptor (P28222 whole entry): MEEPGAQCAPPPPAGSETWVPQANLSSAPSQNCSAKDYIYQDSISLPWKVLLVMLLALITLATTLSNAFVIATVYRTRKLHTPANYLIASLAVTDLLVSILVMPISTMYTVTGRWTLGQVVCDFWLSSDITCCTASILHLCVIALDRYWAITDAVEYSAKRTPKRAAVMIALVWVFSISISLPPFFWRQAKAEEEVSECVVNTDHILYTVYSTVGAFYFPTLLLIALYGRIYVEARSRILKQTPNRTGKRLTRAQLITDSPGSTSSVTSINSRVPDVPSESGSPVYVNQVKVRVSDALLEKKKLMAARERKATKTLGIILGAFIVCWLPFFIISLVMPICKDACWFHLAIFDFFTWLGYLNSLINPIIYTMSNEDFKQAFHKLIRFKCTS
T1 sequence (P28223 whole entry): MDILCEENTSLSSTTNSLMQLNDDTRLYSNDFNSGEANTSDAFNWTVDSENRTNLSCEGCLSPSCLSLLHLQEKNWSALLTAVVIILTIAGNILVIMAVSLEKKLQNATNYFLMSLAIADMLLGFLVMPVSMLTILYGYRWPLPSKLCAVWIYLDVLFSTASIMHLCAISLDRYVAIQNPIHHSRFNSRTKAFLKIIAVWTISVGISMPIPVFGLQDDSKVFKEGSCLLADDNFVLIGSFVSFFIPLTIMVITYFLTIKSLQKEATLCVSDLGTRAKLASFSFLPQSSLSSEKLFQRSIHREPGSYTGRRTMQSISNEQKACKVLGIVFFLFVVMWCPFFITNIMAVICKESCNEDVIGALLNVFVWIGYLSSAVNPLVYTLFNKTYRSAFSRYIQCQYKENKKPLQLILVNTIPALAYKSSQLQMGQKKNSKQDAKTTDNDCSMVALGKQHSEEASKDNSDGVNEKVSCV
T2 sequence (P41595 whole entry): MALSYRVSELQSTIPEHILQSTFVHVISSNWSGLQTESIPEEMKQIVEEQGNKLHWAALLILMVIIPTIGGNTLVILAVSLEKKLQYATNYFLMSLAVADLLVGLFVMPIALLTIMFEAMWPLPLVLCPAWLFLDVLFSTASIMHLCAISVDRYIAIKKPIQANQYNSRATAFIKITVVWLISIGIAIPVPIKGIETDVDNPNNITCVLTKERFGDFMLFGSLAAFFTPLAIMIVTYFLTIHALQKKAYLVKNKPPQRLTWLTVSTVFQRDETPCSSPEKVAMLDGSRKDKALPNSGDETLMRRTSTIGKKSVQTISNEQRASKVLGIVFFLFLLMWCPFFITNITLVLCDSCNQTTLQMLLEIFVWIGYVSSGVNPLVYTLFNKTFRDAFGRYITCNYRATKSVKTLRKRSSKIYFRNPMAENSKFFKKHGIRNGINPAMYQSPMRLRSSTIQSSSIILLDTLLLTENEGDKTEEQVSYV
Sequence of D1 receptor (P21728 whole entry): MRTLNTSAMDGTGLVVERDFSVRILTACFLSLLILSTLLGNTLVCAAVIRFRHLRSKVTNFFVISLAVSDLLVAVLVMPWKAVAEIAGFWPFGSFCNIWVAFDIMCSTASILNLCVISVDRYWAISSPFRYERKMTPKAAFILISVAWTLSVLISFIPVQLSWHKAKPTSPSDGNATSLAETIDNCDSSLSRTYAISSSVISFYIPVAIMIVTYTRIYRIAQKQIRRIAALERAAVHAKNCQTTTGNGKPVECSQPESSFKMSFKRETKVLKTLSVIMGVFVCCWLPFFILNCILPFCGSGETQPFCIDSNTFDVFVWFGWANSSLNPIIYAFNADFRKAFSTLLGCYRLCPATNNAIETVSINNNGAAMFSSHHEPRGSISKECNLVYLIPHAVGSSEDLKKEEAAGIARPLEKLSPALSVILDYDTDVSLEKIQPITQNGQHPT
Sequence of D2 receptor (P14416 whole entry): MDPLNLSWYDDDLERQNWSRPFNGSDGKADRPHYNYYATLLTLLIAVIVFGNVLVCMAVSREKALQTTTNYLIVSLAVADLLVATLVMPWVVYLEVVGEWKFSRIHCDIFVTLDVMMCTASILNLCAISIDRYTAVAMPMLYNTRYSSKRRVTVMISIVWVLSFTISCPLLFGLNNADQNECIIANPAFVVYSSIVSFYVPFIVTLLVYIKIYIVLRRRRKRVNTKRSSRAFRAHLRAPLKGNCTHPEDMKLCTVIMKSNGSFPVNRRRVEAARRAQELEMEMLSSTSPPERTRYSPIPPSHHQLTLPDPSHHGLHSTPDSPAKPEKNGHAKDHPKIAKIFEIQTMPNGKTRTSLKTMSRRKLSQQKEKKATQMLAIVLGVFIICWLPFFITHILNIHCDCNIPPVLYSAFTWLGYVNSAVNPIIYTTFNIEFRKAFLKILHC

CCN(CC)C(=O)[C@@H]1C=C2c3cccc4[nH]cc(c34)C[C@H]2N(CCC(F)(F)F)C1 [Compound 12, (6aR,9R)—N,N-diethyl-7-(3,3,3-trifluoropropyl)-4,6,6a,7,8,9-hexahydroindolo[4,3-fg]quinoline-9-carboxamide]
Ki (5-HT2A receptor [1]): 5.61 nM
EC50 (5-HT1B receptor): 194 nM
EC50 (5-HT2A receptor [2]): 52.9 nM
EC50 (5-HT2B receptor): 154 nM
EC50 (5-HT1A receptor): 2140 nM
t1/2 [3]: 2.1 min
microsomal CLint at 1 μM [3]: 655 µL/min/mg
t1/2 [4]: 13.5 min
microsomal CLint at 1 μM [4]: 103 µL/min/mg
EC50 (Alpha1A receptor): > 3160 nM
t1/2 [5]: 5.9 min
microsomal CLint at 1 μM [5]: 236 µL/min/mg

CCN(CC)C(=O)[C@@H]1C=C2c3cccc4[nH]cc(c34)C[C@H]2N(CC2CC2)C1 [Compound 13, (6aR,9R)—N,N-diethyl-7-(cyclopropylmethyl)-4,6,6a,7,8,9-hexahydroindolo[4,3-fg]quinoline-9-carboxamide]
Ki (5-HT2A receptor [1]): 2.23 nM
EC50 (5-HT1B receptor): 98.6 nM
EC50 (5-HT2A receptor [2]): 25.9 nM
EC50 (5-HT2B receptor): 182 nM
EC50 (5-HT1A receptor): 15.3 nM
t1/2 [3]: 3.7 min
microsomal CLint at 1 μM [3]: 376 µL/min/mg
t1/2 [4]: 21.1 min
microsomal CLint at 1 μM [4]: 65.7 µL/min/mg
EC50 (Alpha1A receptor): 44.6 nM
t1/2 [5]: 27.7 min
microsomal CLint at 1 μM [5]: 50 µL/min/mg

CCN(CC)C(=O)[C@@H]1C=C2c3cccc4[nH]cc(c34)C[C@H]2N(C)C1 [LSD, lysergic acid diethylamide, reference compound]
EC50 (D2 receptor): 4.93 nM
EC50 (5-HT1B receptor): 2.06 nM
Emax (5-HT2A receptor [6]): < 60%
agonist type in arrestin recruitment assay (in words) (5-HT2A receptor [6]): partial agonists
t1/2 [3]: 31.3 min
microsomal CLint at 1 μM [3]: 44.2 µL/min/mg
t1/2 [4]: 71.6 min
microsomal CLint at 1 μM [4]: 19.4 µL/min/mg
EC50 (D1 receptor): 4.87 nM
EC50 (Alpha1A receptor): 91.1 nM
t1/2 [5]: 60.2 min
microsomal CLint at 1 μM [5]: 23 µL/min/mg
